Read-outs that look alike come from different tables or passages of the source.
Assay: Solvent solubility of flame retardants
Type: physicochemical
Conditions: for Solvent solubility compared with FR4 and FR5: comparison with traditionally-known phosphorus-type flame retardants FR4 and FR5
Description: 5 g of a flame retardant was added repeatedly to 100 mL of the following respective solvents at a temperature of 20° C. until the undissolved flame retardant was detected; and a largest amount of the flame retardant dissolved was measured. This largest amount was considered to be solvent solubility. • Solvents: toluene, methyl ethyl ketone (MEK), and propylene glycol monomethyl ether (PM) Materials for Synthesizing Aromatic Phosphoric Acid Esters
Flame retardants FR1 to FR4 as the flame retardants for thermosetting resin were evaluated for solvent solubility by the above method.

[1] = methyl ethyl ketone, 20° C., largest amount dissolved, added in 5 g portions
[2] = propylene glycol monomethyl ether, 20° C., largest amount dissolved, added in 5 g portions
[3] = toluene, 20° C., largest amount dissolved, added in 5 g portions

Row | SMILES | Solvent solubility compared with FR4 and FR5 | Solvent solubility, MEK [1] | Solvent solubility, PM [2] | Solvent solubility, Toluene [3] | Solvent solubility, MEK | Solvent solubility, PM | Solvent solubility, Toluene
1 | Cc1cccc(C)c1OP(=O)(Oc1ccc(C2(c3ccc(OP(=O)(Oc4c(C)cccc4C)Oc4c(C)cccc4C)cc3)CC(C)CC(C)(C)C2)cc1)Oc1c(C)cccc1C (centres unmarked) [FR1] | superior in solvent solubility | 135 g/100 mL | 85 g/100 mL | 140 g/100 mL |  |  | 
2 | Cc1cccc(C)c1OP(=O)(Oc1ccc(C2(c3ccc(OP(=O)(Oc4c(C)cccc4C)Oc4c(C)cccc4C)cc3)CCCCCCCCCCC2)cc1)Oc1c(C)cccc1C [FR2] | superior in solvent solubility | 50 g/100 mL | 10 g/100 mL | 130 g/100 mL |  |  | 
3 | Cc1cccc(C)c1OP(=O)(Oc1cccc(OP(=O)(Oc2c(C)cccc2C)Oc2c(C)cccc2C)c1)Oc1c(C)cccc1C [FR3, 1,3-phenylenebis(di-2,6-xylyl phosphate), reference compound] |  |  |  |  | 55 g/100 mL | 10 g/100 mL | 75 g/100 mL
4 | O=[PH]1Oc2ccccc2-c2ccccc21 (centres unmarked) [FR5, 9,10-dihydro-9-oxa-10-phosphaphenanthrene-10-oxide, reference compound] |  | 5 g/100 mL | 15 g/100 mL | <5 g/100 mL |  |  | 
